These results are taken from ChEMBL document CHEMBL4177564, “Pyrrolo[2,1-f][1,2,4]triazines: From C-nucleosides to kinases and back again, the remarkable journey of a versatile nitrogen heterocycle” (Bioorg Med Chem Lett, 2017).

In assay [1] the target is Potassium voltage-gated channel subfamily A member 5 (Homo sapiens) (UniProt P22460). Briefly: Inhibition of human Kv1.5 expressed in mouse L929 cells assessed as reduction in channel current at 0.3 uM by patch clamp method relative to control. It is filed as cell-based.
Assay [2] addresses Ubiquitin carboxyl-terminal hydrolase 7 (Homo sapiens, UniProt Q93009). In words: Inhibition of His6-tagged USP7 (208 to 1102 residues) (unknown origin) using ubiquitin-rhodamine110 as substrate preincubated for 30 mins followed by substrate addition measured after 20 mins by fluorescence assay.

Chain of Potassium voltage-gated channel subfamily A member 5 (Homo sapiens) (P22460 whole entry, the tested form may be a part): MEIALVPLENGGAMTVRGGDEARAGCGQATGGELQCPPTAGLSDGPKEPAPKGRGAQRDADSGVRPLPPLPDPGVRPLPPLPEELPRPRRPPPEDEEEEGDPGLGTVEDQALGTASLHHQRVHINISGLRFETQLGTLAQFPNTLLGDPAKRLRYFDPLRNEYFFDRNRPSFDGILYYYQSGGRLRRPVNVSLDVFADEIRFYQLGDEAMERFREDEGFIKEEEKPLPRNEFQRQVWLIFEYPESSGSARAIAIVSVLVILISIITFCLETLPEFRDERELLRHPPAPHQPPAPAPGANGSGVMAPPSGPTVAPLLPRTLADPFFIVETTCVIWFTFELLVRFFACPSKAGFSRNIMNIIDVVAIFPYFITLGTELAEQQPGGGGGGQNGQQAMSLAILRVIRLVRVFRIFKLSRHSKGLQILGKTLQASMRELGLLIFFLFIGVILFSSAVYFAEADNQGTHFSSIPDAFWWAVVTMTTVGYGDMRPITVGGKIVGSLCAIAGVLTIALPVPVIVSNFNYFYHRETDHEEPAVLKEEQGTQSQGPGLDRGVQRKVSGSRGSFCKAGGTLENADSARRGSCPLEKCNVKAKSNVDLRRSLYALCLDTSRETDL
Chain of Ubiquitin carboxyl-terminal hydrolase 7 (Q93009 whole entry, the tested form may be a part): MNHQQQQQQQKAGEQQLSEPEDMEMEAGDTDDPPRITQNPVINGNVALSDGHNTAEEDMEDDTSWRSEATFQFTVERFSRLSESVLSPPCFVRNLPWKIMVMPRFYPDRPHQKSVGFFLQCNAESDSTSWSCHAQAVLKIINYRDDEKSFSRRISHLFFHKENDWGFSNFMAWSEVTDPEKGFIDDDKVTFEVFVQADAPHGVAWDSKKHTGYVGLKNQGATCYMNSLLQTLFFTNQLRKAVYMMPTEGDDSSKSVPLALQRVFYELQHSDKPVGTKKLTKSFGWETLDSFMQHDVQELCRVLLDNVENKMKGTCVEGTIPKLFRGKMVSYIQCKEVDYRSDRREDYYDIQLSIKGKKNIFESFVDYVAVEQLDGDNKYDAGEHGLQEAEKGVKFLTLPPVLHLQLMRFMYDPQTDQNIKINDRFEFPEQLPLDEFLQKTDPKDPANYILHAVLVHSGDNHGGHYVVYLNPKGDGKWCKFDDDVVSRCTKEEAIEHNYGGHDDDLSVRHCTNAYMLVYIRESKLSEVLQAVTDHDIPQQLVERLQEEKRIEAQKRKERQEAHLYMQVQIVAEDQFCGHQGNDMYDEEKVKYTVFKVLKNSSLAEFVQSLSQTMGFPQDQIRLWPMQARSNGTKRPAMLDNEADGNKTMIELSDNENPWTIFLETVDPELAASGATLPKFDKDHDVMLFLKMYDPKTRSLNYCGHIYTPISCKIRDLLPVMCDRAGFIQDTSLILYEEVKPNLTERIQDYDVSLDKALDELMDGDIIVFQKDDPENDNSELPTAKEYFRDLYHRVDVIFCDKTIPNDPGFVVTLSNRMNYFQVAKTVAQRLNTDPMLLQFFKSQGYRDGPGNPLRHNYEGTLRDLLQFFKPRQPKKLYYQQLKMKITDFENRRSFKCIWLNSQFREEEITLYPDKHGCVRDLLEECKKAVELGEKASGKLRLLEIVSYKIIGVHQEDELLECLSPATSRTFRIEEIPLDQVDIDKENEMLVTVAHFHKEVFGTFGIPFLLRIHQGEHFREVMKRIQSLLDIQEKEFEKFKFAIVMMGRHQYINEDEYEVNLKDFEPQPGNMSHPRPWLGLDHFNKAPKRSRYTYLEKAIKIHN

For orientation: inhibition means the change of the read-out against control, counted positive when it falls. Take `NS(=O)(=O)c1cncc(-c2nc(NCc3ccccc3)c3c(-c4ccccc4)ccn3n2)c1`: the inhibition in assay [1] was above 95%.

The IC50 is the concentration at which inhibition is half-maximal. In assay [2], `C[C@H](CC(=O)N1CCC(O)(Cn2cnn3cccc3c2=O)CC1)c1ccccc1` had a half-maximal inhibitory concentration (IC50) below 0.2 µM.
